Results on three compounds are retold here after article PMC5481828, “Construction of a synthetic metabolic pathway for biosynthesis of the non-natural methionine precursor 2,4-dihydroxybutyric acid” (Nature Communications, 2017).

SMILES strings stand for the structures.

The target in one test is T1, Ms-Ssr (Metallosphaera sedula, UniProt A4YGN0).
T1 construct: gene Msed_1424
T1 sequence (A4YGN0 1-360): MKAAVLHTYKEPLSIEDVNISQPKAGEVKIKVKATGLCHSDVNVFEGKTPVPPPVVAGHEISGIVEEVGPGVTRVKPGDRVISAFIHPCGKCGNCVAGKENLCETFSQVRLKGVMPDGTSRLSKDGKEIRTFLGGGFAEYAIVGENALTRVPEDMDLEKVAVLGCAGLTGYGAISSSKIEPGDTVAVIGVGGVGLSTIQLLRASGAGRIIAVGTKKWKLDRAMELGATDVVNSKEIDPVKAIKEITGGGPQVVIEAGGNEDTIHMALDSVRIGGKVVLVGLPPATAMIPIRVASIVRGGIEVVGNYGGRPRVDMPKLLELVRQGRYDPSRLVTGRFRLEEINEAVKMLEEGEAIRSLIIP
The experiment in a line: NAD(P)H oxidation at […] nm. The class given is biochemical. The settings on record: NADPH 0.2 mM, Hepes pH 7.5, 50 mM KCl, 5 mM MgCl2, 37 °C; read-out: affinity.

A further test has as its target Bs-Asd (Bacillus subtilis, UniProt Q04797, E218Q). The experiment in a line: NADPH oxidation, substrate made in situ by malate kinase. The class given is biochemical. The settings on record: biosynthetic direction, 0.2 mM NADPH, 2 mM ATP, 20 mM malate, Hepes pH 7, 37 °C.
The target of another test is T2, Mj-Asd (Methanocaldococcus jannaschii, UniProt Q57658).
T2 sequence (Q57658 1-354): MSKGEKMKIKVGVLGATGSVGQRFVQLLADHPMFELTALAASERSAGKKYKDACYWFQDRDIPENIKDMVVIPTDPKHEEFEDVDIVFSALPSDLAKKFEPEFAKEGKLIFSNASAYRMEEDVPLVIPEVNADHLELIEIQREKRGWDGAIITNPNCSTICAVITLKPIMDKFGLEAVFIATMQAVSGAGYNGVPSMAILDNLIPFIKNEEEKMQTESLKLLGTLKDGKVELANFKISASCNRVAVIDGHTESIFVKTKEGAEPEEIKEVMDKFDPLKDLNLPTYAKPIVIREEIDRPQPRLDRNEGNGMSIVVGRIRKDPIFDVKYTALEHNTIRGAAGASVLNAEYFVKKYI
The description is as above. The test is classed as biochemical. The settings on record: biosynthetic direction, 0.2 mM NADPH, 2 mM ATP, 20 mM malate, Hepes pH 7, 37 °C.

For a further test, the target named is Ec-LysC (Escherichia coli, UniProt P08660). The settings on record: 2 mM ATP, 5 mM MgCl2, 50 mM KCl, Hepes pH 7.5, 37 °C.
Sequence of Ec-LysC (P08660 whole entry): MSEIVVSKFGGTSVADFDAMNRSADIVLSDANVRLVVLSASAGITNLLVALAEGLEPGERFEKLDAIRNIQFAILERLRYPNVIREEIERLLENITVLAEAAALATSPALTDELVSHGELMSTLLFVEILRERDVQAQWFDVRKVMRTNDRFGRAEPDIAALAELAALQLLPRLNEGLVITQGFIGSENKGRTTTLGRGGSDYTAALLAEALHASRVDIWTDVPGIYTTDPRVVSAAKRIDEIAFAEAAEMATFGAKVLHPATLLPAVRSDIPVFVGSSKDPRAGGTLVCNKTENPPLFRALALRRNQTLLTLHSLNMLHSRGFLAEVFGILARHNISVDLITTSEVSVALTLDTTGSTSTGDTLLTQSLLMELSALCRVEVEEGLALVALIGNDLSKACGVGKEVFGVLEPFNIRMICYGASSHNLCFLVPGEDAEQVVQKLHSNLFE

Sequence of Bs-Asd (Q04797 whole entry E218Q): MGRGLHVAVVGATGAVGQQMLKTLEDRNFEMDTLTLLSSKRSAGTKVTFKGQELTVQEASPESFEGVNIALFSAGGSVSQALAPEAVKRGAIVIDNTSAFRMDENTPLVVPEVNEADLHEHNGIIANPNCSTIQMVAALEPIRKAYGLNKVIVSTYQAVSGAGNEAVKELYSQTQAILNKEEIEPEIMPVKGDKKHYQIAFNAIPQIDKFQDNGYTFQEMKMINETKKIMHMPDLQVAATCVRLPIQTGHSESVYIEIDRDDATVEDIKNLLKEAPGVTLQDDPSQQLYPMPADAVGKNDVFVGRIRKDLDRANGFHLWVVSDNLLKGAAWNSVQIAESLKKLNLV

Turning to `O=CC[C@H](O)C(=O)O` [MSA, malate semialdehyde], the Km at Ms-Ssr worked out at 1100 µM.

Turning to `O=C(C[C@H](O)C(=O)O)OP(=O)(O)O` [malyl-P, malyl-4-phosphate], the “NADPH oxidation, substrate made in situ by malate kinase” value at Bs-Asd was “Bs-Asd E218Q mutant enzyme, which displayed an almost eightfold increased activity on malyl-P”; at Mj-Asd, “Enzymatic activities of wild-type Bs-Asd and Mj-Asd on malyl-P were approximately threefold lower”.

On to `N[C@@H](CC(=O)O)C(=O)O` [(L)-aspartate], for which the Km entry at Ec-LysC was “Catalytic efficiency (kcat/Km) of wild-type aspartate kinase”.
